Source: patent US9006487B2, “Amine-containing lipids and uses thereof” (Massachusetts Institute of Technology, priority 2005, dated 2015)

Tested on: cos-7 cells
Experiment: DNA transfection: luciferase expression relative to Lipofectamine 2000
Assay type: cell-based
Conditions: 2.5 w/w lipid to DNA; 300 ng DNA per well; luciferase assay after 48 hours
In short: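 cos-7 cells were transfected with 300 ng/well luciferase DNA complexed with lipid at ratios from 2.5 to 25 w/w. Bright-Glo luminescence was read after 48 hours and converted to ng luciferase by standard curve. Data are percent of the Lipofectamine 2000 control (2.5 w/w).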

Row | Structure (SMILES) | % of the luciferase activity obtained from the use of Lipofectamine 2000 [%]
1 | CCCCCCCCCCCCCCCOC(=O)CC[N+](C)(CCC[N+](C)(CCO)CCO)CCC(=O)OCCCCCCCCCCCCCCC [QG87] | 89.0
2 | CCCCCCCCCCCCCCCOC(=O)CC[N+](C)(CCC[N+](C)(CCC(=O)OCCCCCCCCCCCCCCC)CCC(=O)OCCCCCCCCCCCCCCC)CCC(=O)OCCCCCCCCCCCCCCC [QG100] | 11.2

Same assay, conditions: 5 w/w lipid to DNA; 300 ng DNA per well; luciferase assay after 48 hours

Row | Structure (SMILES) | % of the luciferase activity obtained from the use of Lipofectamine 2000 [%]
3 | CCCCCCCCCCCCCCCOC(=O)CC[N+](C)(CCC[N+](C)(CCO)CCO)CCC(=O)OCCCCCCCCCCCCCCC [QG87] | 94.0
4 | CCCCCCCCCCCCCCCOC(=O)CC[N+](C)(CCC[N+](C)(CCC(=O)OCCCCCCCCCCCCCCC)CCC(=O)OCCCCCCCCCCCCCCC)CCC(=O)OCCCCCCCCCCCCCCC [QG100] | 32.1

Same assay, conditions: 10 w/w lipid to DNA; 300 ng DNA per well; luciferase assay after 48 hours

Row | Structure (SMILES) | % of the luciferase activity obtained from the use of Lipofectamine 2000 [%]
5 | CCCCCCCCCCCCCCCOC(=O)CC[N+](C)(CCC[N+](C)(CCO)CCO)CCC(=O)OCCCCCCCCCCCCCCC [QG87] | 42.4
6 | CCCCCCCCCCCCCCCOC(=O)CC[N+](C)(CCC[N+](C)(CCC(=O)OCCCCCCCCCCCCCCC)CCC(=O)OCCCCCCCCCCCCCCC)CCC(=O)OCCCCCCCCCCCCCCC [QG100] | 57.1

Same assay, conditions: 15 w/w lipid to DNA; 300 ng DNA per well; luciferase assay after 48 hours

Row | Structure (SMILES) | % of the luciferase activity obtained from the use of Lipofectamine 2000 [%]
7 | CCCCCCCCCCCCCCCOC(=O)CC[N+](C)(CCC[N+](C)(CCO)CCO)CCC(=O)OCCCCCCCCCCCCCCC [QG87] | 64.7
8 | CCCCCCCCCCCCCCCOC(=O)CC[N+](C)(CCC[N+](C)(CCC(=O)OCCCCCCCCCCCCCCC)CCC(=O)OCCCCCCCCCCCCCCC)CCC(=O)OCCCCCCCCCCCCCCC [QG100] | 102.6

Same assay, conditions: 20 w/w lipid to DNA; 300 ng DNA per well; luciferase assay after 48 hours

Row | Structure (SMILES) | % of the luciferase activity obtained from the use of Lipofectamine 2000 [%]
9 | CCCCCCCCCCCCCCCOC(=O)CC[N+](C)(CCC[N+](C)(CCO)CCO)CCC(=O)OCCCCCCCCCCCCCCC [QG87] | 62.1
10 | CCCCCCCCCCCCCCCOC(=O)CC[N+](C)(CCC[N+](C)(CCC(=O)OCCCCCCCCCCCCCCC)CCC(=O)OCCCCCCCCCCCCCCC)CCC(=O)OCCCCCCCCCCCCCCC [QG100] | 93.0

Same assay, conditions: 25 w/w lipid to DNA; 300 ng DNA per well; luciferase assay after 48 hours

Row | Structure (SMILES) | % of the luciferase activity obtained from the use of Lipofectamine 2000 [%]
11 | CCCCCCCCCCCCCCCOC(=O)CC[N+](C)(CCC[N+](C)(CCO)CCO)CCC(=O)OCCCCCCCCCCCCCCC [QG87] | 44.1
12 | CCCCCCCCCCCCCCCOC(=O)CC[N+](C)(CCC[N+](C)(CCC(=O)OCCCCCCCCCCCCCCC)CCC(=O)OCCCCCCCCCCCCCCC)CCC(=O)OCCCCCCCCCCCCCCC [QG100] | 94.5

Same assay, conditions: lipid/DNA 2.5 w/w; 300 ng Luciferase DNA per well; luciferase assay after 48 hours

Row | Structure (SMILES) | Luciferase expression as a percentage of that achieved using Lipofectamine 2000 [%]
13 | CCCCCCCCCCCCCCOC(=O)CC[N+](C)(CCC(=O)OCCCCCCCCCCCCCC)CC1COC(C)(C)O1.[I-] (stereo not drawn) [QF7] | 0.0

Same assay, conditions: lipid/DNA 2.5 w/w; 300 ng of DNA per well

Row | Structure (SMILES) | luciferase expression (second part of table, values relative to LIPO2000)
14 | CCCCCCCCCCCCCCCOC(=O)CC[N+](C)(CCC[N+](C)(CCO)CCO)CCC(=O)OCCCCCCCCCCCCCCC [QG87] | 89.0
15 | CCCCCCCCCCCCCCCOC(=O)CC[N+](C)(CCC[N+](C)(CCC(=O)OCCCCCCCCCCCCCCC)CCC(=O)OCCCCCCCCCCCCCCC)CCC(=O)OCCCCCCCCCCCCCCC [QG100] | 11.2

Same assay, conditions: lipid/DNA 5 w/w; 300 ng Luciferase DNA per well; luciferase assay after 48 hours

Row | Structure (SMILES) | Luciferase expression as a percentage of that achieved using Lipofectamine 2000 [%]
16 | CCCCCCCCCCCCCCOC(=O)CC[N+](C)(CCC(=O)OCCCCCCCCCCCCCC)CC1COC(C)(C)O1.[I-] (stereo not drawn) [QF7] | 0.0

Same assay, conditions: lipid/DNA 5 w/w; 300 ng of DNA per well

Row | Structure (SMILES) | luciferase expression (second part of table, values relative to LIPO2000)
17 | CCCCCCCCCCCCCCCOC(=O)CC[N+](C)(CCC[N+](C)(CCO)CCO)CCC(=O)OCCCCCCCCCCCCCCC [QG87] | 94.0
18 | CCCCCCCCCCCCCCCOC(=O)CC[N+](C)(CCC[N+](C)(CCC(=O)OCCCCCCCCCCCCCCC)CCC(=O)OCCCCCCCCCCCCCCC)CCC(=O)OCCCCCCCCCCCCCCC [QG100] | 32.1

Same assay, conditions: lipid/DNA 10 w/w; 300 ng Luciferase DNA per well; luciferase assay after 48 hours

Row | Structure (SMILES) | Luciferase expression as a percentage of that achieved using Lipofectamine 2000 [%]
19 | CCCCCCCCCCCCCCOC(=O)CC[N+](C)(CCC(=O)OCCCCCCCCCCCCCC)CC1COC(C)(C)O1.[I-] (stereo not drawn) [QF7] | 0.0

Same assay, conditions: lipid/DNA 10 w/w; 300 ng of DNA per well

Row | Structure (SMILES) | luciferase expression (second part of table, values relative to LIPO2000)
20 | CCCCCCCCCCCCCCCOC(=O)CC[N+](C)(CCC[N+](C)(CCO)CCO)CCC(=O)OCCCCCCCCCCCCCCC [QG87] | 42.4
21 | CCCCCCCCCCCCCCCOC(=O)CC[N+](C)(CCC[N+](C)(CCC(=O)OCCCCCCCCCCCCCCC)CCC(=O)OCCCCCCCCCCCCCCC)CCC(=O)OCCCCCCCCCCCCCCC [QG100] | 57.1

Same assay, conditions: lipid/DNA 15 w/w; 300 ng Luciferase DNA per well; luciferase assay after 48 hours

Row | Structure (SMILES) | Luciferase expression as a percentage of that achieved using Lipofectamine 2000 [%]
22 | CCCCCCCCCCCCCCOC(=O)CC[N+](C)(CCC(=O)OCCCCCCCCCCCCCC)CC1COC(C)(C)O1.[I-] (stereo not drawn) [QF7] | 0.0

Same assay, conditions: lipid/DNA 15 w/w; 300 ng of DNA per well

Row | Structure (SMILES) | luciferase expression (second part of table, values relative to LIPO2000)
23 | CCCCCCCCCCCCCCCOC(=O)CC[N+](C)(CCC[N+](C)(CCO)CCO)CCC(=O)OCCCCCCCCCCCCCCC [QG87] | 64.7
24 | CCCCCCCCCCCCCCCOC(=O)CC[N+](C)(CCC[N+](C)(CCC(=O)OCCCCCCCCCCCCCCC)CCC(=O)OCCCCCCCCCCCCCCC)CCC(=O)OCCCCCCCCCCCCCCC [QG100] | 102.6

Same assay, conditions: lipid/DNA 20 w/w; 300 ng Luciferase DNA per well; luciferase assay after 48 hours

Row | Structure (SMILES) | Luciferase expression as a percentage of that achieved using Lipofectamine 2000 [%]
25 | CCCCCCCCCCCCCCOC(=O)CC[N+](C)(CCC(=O)OCCCCCCCCCCCCCC)CC1COC(C)(C)O1.[I-] (stereo not drawn) [QF7] | 0.0

Same assay, conditions: lipid/DNA 20 w/w; 300 ng of DNA per well

Row | Structure (SMILES) | luciferase expression (second part of table, values relative to LIPO2000)
26 | CCCCCCCCCCCCCCCOC(=O)CC[N+](C)(CCC[N+](C)(CCO)CCO)CCC(=O)OCCCCCCCCCCCCCCC [QG87] | 62.1
27 | CCCCCCCCCCCCCCCOC(=O)CC[N+](C)(CCC[N+](C)(CCC(=O)OCCCCCCCCCCCCCCC)CCC(=O)OCCCCCCCCCCCCCCC)CCC(=O)OCCCCCCCCCCCCCCC [QG100] | 93.0

Same assay, conditions: lipid/DNA 25 w/w; 300 ng Luciferase DNA per well; luciferase assay after 48 hours

Row | Structure (SMILES) | Luciferase expression as a percentage of that achieved using Lipofectamine 2000 [%]
28 | CCCCCCCCCCCCCCOC(=O)CC[N+](C)(CCC(=O)OCCCCCCCCCCCCCC)CC1COC(C)(C)O1.[I-] (stereo not drawn) [QF7] | 0.0

Same assay, conditions: lipid/DNA 25 w/w; 300 ng of DNA per well

Row | Structure (SMILES) | luciferase expression (second part of table, values relative to LIPO2000)
29 | CCCCCCCCCCCCCCCOC(=O)CC[N+](C)(CCC[N+](C)(CCO)CCO)CCC(=O)OCCCCCCCCCCCCCCC [QG87] | 44.1
30 | CCCCCCCCCCCCCCCOC(=O)CC[N+](C)(CCC[N+](C)(CCC(=O)OCCCCCCCCCCCCCCC)CCC(=O)OCCCCCCCCCCCCCCC)CCC(=O)OCCCCCCCCCCCCCCC [QG100] | 94.5
